Test results published in patent publication US20160193165A1, “NOVEL POLYMORPHS AND SALTS” (CHIESI FARMACEUTICI S.p.A., priority 2010, published 2016).

Assays:
[1] = Thermodynamic solubility of salts in water; format: physicochemical; conditions: for Solubility: 37° C., pH 6.8-7.4, stirring 500 rpm, 24 hours
Method: Each of the sodium, potassium, L-Arg and L-Lys salts prepared as described above was dissolved in water at a temperature of 37° C., pH 6.8-7.4 at a stirring rate of 500 rpm for 24 hours.

[2] = Stability of salts on storage at room temperature and 80% relative humidity (XRPD); format: physicochemical; conditions: for changes in the XRPD pattern after storage: 7 days at room temperature and 80% relative humidity
Method: Each of the salts obtained was characterized by X-ray powder diffraction (XRPD), Thermogravimetric analysis (TGA), and Differential Scanning calorimetry (DSC). Furthermore, the stabilities of the sodium, potassium, L-Arginine and L-Lysine salts were tested by storage for 7 days at room temperature and 80% relative humidity.

| SMILES | solubility in water (in words) [1] | Solubility [1] | changes in the XRPD pattern after storage [2] | stability when stored under conditions of high humidity (in words) [2] |
| --- | --- | --- | --- | --- |
| O=C(O)C1(c2ccc(-c3ccc(Cl)c(Cl)c3)c(F)c2)CC1 [L-Arginine, 1-(3′,4′-dichloro-2-fluorobiphenyl-4-yl)cyclopropanecarboxylic acid] | excellent solubility | 15.2 mg/mL | No changes | good stability |
| O=C(O)C1(c2ccc(-c3ccc(Cl)c(Cl)c3)c(F)c2)CC1 [L-Lysine, 1-(3′,4′-dichloro-2-fluorobiphenyl-4-yl)cyclopropanecarboxylic acid] | excellent solubility | 36.6 mg/mL | No changes | good stability |
| O=C(O)C1(c2ccc(-c3ccc(Cl)c(Cl)c3)c(F)c2)CC1 [Potassium, 1-(3′,4′-dichloro-2-fluorobiphenyl-4-yl)cyclopropanecarboxylic acid] | excellent solubility | 6.3 mg/mL | No changes | good stability |
| O=C(O)C1(c2ccc(-c3ccc(Cl)c(Cl)c3)c(F)c2)CC1 [Sodium, 1-(3′,4′-dichloro-2-fluorobiphenyl-4-yl)cyclopropanecarboxylic acid] | excellent solubility | 20.4 mg/mL | No changes | good stability |
